Key:
RET-V804M = RET-V804M (Homo sapiens, UniProt P07949, V804M); assay: RET inhibition experiment (HTRF KinEASE-TK kit), mutant RET-V804M; format: biochemical; conditions: for inhibition at 0.01 µM: 10 nM (Table 2); for IC50: read-out: The IC50 (nM) for inhibiting V804M
Method: Experimental method: According to the instructions of the HTRF KinEASE-TK kit (Cisbio), the compounds of the present disclosure were tested for their inhibitory effects on the activity of wild-type RET enzyme, mutant RET enzyme (RET-V804M, RET-V804L, and RET-M918T) and fusion-type RET enzyme (RET-CCDCl6). After pre-incubation of different RET enzymes and different concentrations of the test compounds at room temperature for 30 min, a substrate and adenosine triphosphate (ATP) were added to initiate the reaction. After incubation at room temperature for 40 min, TK antibody-cryptate and streptavidin-XL665 were added, and the test was performed after incubation at room temperature for 45 min. With the solvent group (DMSO) as the negative control and the buffer group (without RET enzyme) as the blank control, the relative inhibitory activity percentages (i.e., inhibition rates) of different concentrations of the compounds were computed as per the following formula:
(§1) Relative inhibitory activity percentage=1−(compound group of different concentrations−blank control)/(negative control−blank control)*100%
(§2) The relative inhibitory activity percentages of different concentrations of the compounds were plotted with respect to the compound concentrations, and the curve was fitted according to a four-parameter model to compute the IC50 value as per the following formula:
(§3) y=min+(max−min)/(1+(x/IC50)^(−Hillslope))
(§4) where y is the relative inhibitory activity percentage, max is the maximum value of the fitted curve, min is the minimum value of the fitted curve, x is the logarithmic concentration of the compound, and Hillslope is the slope of the curve.

VEGFR2 = VEGFR2 (Homo sapiens, UniProt P35968); assay: VEGFR2 inhibition experiment (HTRF KinEASE-TK kit); format: biochemical; conditions: for inhibition at 0.1 µM: 100 nM; for inhibition at 0.03 µM: 30 nM; for inhibition at 0.3 µM: 300 nM
Chain of VEGFR2 (P35968 20-1356, species assumed): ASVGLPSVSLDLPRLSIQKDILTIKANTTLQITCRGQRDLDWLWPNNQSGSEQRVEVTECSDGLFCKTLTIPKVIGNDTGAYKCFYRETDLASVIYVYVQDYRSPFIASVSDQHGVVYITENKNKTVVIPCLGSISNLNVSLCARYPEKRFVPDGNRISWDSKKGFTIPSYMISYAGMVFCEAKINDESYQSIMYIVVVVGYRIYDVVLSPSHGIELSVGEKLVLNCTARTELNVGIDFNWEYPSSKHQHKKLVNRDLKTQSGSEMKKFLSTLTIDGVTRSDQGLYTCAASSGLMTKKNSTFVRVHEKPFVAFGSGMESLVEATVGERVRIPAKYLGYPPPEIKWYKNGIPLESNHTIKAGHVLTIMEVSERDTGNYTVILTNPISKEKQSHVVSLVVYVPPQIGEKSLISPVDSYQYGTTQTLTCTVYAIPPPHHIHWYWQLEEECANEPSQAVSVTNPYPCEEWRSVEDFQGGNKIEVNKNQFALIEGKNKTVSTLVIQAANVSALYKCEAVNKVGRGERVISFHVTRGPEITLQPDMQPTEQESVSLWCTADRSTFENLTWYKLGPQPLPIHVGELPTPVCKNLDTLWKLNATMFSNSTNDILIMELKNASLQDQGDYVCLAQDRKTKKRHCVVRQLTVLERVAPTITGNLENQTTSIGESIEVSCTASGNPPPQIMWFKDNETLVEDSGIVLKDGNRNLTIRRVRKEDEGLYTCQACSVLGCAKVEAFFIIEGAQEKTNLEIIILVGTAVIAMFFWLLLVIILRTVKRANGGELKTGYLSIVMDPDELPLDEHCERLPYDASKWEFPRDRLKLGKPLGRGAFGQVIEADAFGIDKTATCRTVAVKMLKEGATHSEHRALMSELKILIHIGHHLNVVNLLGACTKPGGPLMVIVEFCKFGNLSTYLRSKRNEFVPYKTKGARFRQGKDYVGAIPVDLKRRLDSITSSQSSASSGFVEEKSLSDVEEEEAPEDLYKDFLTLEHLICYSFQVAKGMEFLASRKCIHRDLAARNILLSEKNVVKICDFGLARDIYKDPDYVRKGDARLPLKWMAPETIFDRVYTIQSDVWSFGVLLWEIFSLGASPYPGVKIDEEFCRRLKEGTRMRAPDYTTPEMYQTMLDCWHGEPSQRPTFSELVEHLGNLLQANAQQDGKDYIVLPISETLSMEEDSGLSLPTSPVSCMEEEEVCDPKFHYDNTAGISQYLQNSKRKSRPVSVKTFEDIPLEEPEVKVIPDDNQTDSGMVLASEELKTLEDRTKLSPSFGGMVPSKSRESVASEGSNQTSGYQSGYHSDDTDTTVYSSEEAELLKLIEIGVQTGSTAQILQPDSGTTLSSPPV
Method: Experimental method: According to the instructions of the HTRF KinEASE-TK kit (Cisbio), the compounds of the present disclosure were tested for their inhibitory effects on the VEGFR2 enzyme activity. After pre-incubation of the VEGFR2 enzyme and different concentrations of test compounds at room temperature for 30 min, a substrate and adenosine triphosphate (ATP) were added to initiate the reaction. After incubation at room temperature for 40 min, TK antibody-cryptate and streptavidin-XL665 were added, and the test was performed after incubation at room temperature for 45 min. With the solvent group (DMSO) as the negative control and the buffer group (without VEGFR2 enzyme) as the blank control, the relative inhibitory activity percentages (i.e., inhibition rates) of different concentrations of the compounds were computed as per the following formula:
as §1, §2, §3, §4

[1] = read-out: Inhibition rate on RET-V804M
[2] = read-out: Inhibition rate on VEGFR2

Chain of RET-V804M (P07949 29-1114 V804M): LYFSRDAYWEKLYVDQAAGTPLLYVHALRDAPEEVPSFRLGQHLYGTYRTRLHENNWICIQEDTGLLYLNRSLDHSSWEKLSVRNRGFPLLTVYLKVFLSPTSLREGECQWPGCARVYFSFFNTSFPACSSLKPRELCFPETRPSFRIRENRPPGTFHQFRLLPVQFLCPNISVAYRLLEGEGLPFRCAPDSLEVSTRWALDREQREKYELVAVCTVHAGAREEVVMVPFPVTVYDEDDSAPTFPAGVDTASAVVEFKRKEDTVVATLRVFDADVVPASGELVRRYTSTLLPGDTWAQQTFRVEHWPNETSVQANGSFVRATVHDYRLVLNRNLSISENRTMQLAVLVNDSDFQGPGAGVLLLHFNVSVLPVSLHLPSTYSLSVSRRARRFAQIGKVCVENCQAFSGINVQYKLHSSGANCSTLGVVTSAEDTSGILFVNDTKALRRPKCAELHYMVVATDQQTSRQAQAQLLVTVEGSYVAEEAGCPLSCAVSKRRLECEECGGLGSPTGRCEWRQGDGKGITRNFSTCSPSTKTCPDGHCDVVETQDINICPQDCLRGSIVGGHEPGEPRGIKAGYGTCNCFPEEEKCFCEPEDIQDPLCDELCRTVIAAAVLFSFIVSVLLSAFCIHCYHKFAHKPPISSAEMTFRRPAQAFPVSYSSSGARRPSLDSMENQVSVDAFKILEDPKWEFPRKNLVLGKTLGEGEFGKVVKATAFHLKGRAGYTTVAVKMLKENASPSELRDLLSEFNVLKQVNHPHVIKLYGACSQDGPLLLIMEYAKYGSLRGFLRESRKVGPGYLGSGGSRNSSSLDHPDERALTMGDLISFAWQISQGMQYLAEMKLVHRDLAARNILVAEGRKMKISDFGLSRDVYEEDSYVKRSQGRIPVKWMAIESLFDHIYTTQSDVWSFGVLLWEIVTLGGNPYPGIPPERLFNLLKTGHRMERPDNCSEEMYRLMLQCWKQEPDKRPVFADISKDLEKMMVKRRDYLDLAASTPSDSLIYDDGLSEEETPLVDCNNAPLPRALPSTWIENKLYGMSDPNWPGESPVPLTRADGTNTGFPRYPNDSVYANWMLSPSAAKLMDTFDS

SMILES	inhibition at 0.01 µM (RET-V804M; [1]) [%]	inhibition at 0.1 µM (VEGFR2; [2]) [%]	inhibition at 0.3 µM (VEGFR2; [2]) [%]	IC50 (RET-V804M) [nM]	also measured
Cc1cc(Nc2cc(C)[nH]n2)nc(-c2ccc(N3CC4CC(C3)N4Cc3ccc(F)cc3)nc2)n1 [Compound 83, 2-(6-(6-(4-fluorobenzyl)-3,6-diazabicyclo[3.1.1]heptan-3-yl)pyridin-3-yl)-6-methyl-N-(5-methyl-1H-pyrazol-3-yl)pyrimidin-4-amine]	56	18	–	–	–
Cc1cc(Nc2cc(C)[nH]n2)nc(-c2ccc(N3CC4CC(C3)N4Cc3ccc(-n4ccc(F)n4)cc3)nc2)n1 [Compound 89, 2-(6-(6-(4-(3-fluoro-1H-pyrazol-1-yl)benzyl)-3,6-diazabicyclo[3.1.1]heptan-3-yl)pyridin-3-yl)-6-methyl-N-(5-methyl-1H-pyrazol-3-yl)pyrimidin-4-amine]	70	16	–	–	–
Cc1cc(Nc2cc(C)[nH]n2)nc(-c2ccc(N3CC4CC(C3)N4Cc3ccc(-n4ccc(CF)n4)nc3)nc2)n1 [Compound 31, 2-(6-(6-((6-(3-(fluoromethyl)-1H-pyrazol-1-yl)pyridin-3-yl)methyl)-3,6-diazabicyclo[3.1.1]heptan-3-yl)pyridin-3-yl)-6-methyl-N-(5-methyl-1H-pyrazol-3-yl)pyrimidin-4-amine]	81	–	–	–	inhibition at 0.03 µM (VEGFR2; [2]): 17%
Cc1cc(Nc2cc(C)[nH]n2)nc(-c2ccc(N3CC4CC(C3)N4C(C)c3ccc(-n4cccn4)nc3)nc2)n1 (single isomer, unassigned) [Compound 125-2]	82	–	63	–	–
Cc1cc(Nc2cc(C)[nH]n2)nc(-c2ccc(N3CC4CC(C3)N4Cc3ccc(-n4nc(C)cc4C)nc3)nc2)n1 [Compound 11, 2-(6-(6-((6-(3,5-dimethyl-1H-pyrazol-1-yl)pyridin-3-yl)methyl)-3,6-diazabicyclo[3.1.1]heptan-3-yl)pyridin-3-yl)-6-methyl-N-(5-methyl-1H-pyrazol-3-yl)pyrimidin-4-amine]	–	–	–	7.22 ± 0.58	IC50 (VEGFR2; read-out: IC50 for inhibiting VEGFR2): 158 ± 25.1 nM
Cc1cc(Nc2cc(C)[nH]n2)nc(-c2ccc(N3CC4CC(C3)N4Cc3ccc(-n4cccn4)cc3)nc2)n1 [Compound 86, 2-(6-(6-(4-(1H-pyrazol-1-yl)benzyl)-3,6-diazabicyclo[3.1.1]heptan-3-yl)pyridin-3-yl)-6-methyl-N-(5-methyl-1H-pyrazol-3-yl)pyrimidin-4-amine]	64	52	–	–	–
COc1ccc(-c2ccc(CN3C4CC3CN(c3ccc(-c5nc(C)cc(Nc6cc(C)[nH]n6)n5)cn3)C4)cn2)cn1 [Compound 7, 2-(6-(6-((6′-methoxy-[2,3′-dipyridyl]-5-yl)methyl)-3,6-diazabicyclo[3.1.1]heptan-3-yl)pyridin-3-yl)-6-methyl-N-(5-methyl-1H-pyrazol-3-yl)pyrimidin-4-amine]	46	16	–	–	–
Cc1cc(Nc2cc(C)[nH]n2)nc(-c2ccc(N3CC4CC(C3)N4Cc3ccc(-c4ccc(F)[nH]4)nc3)nc2)n1 [Compound 131, 2-(6-(6-((6-(5-fluoro-1H-pyrrol-2-yl)pyridin-3-yl)methyl)-3,6-diazabicyclo[3.1.1]heptan-3-yl)pyridin-3-yl)-6-methyl-N-(5-methyl-1H-pyrazol-3-yl)pyrimidin-4-amine]	72	–	–	–	inhibition at 0.03 µM (VEGFR2; [2]): 50%
Cc1cc(Nc2cc(C)[nH]n2)nc(-c2ccc(N3CC4CC(C3)N4Cc3ccc(-c4ccc[nH]4)nc3)nc2)n1 [Compound 123, 2-(6-(6-((6-(1H-pyrrol-2-yl)pyridin-3-yl)methyl)-3,6-diazabicyclo[3.1.1]heptan-3-yl)pyridin-3-yl)-6-methyl-N-(5-methyl-1H-pyrazol-3-yl)pyrimidin-4-amine]	–	–	–	1.88 ± 0.11	inhibition at 0.03 µM (VEGFR2; [2]): 56%
Cc1cc(Nc2cc(C)[nH]n2)nc(-c2ccc(N3CC4CC(C3)N4Cc3ccc(-n4cc5c(n4)CCC5)nc3)nc2)n1 [Compound 25]	–	–	53	6.29 ± 0.9	–
Cc1cc(Nc2cc(C)[nH]n2)nc(-c2ccc(N3CC4CC(C3)N4Cc3ccc(-n4ccc(CO)n4)nc3)nc2)n1 [Compound 137, (1-(5-((3-(5-(4-methyl-6-((5-methyl-1H-pyrazol-3-yl)-amino)pyrimidin-2-yl)pyridin-2-yl)-3,6-diazabicyclo[3.1.1]heptan-6-yl)methyl)pyridin-2-yl)-1H-pyrazol-3-yl)methanol]	93	–	–	–	inhibition at 0.03 µM (VEGFR2; [2]): 26%
Cc1cc(Nc2cc(C3CC3)[nH]n2)nc(-c2ccc(N3CC4CC(C3)N4Cc3ccc(-n4cc(F)cn4)nc3)nc2)n1 [Compound 10, N-(5-cyclopropyl-1H-pyrazol-3-yl)-2-(6-(6-((6-(4-fluoro-1H-pyrazol-1-yl)pyridin-3-yl)methyl)-3,6-diazabicyclo[3.1.1]heptan-3-yl)pyridin-3-yl)-6-methylpyrimidin-4-amine]	–	–	69	3.97 ± 0.3	–
Cc1cnn(-c2ccc(CN3C4CC3CN(c3ccc(-c5nc(C)cc(Nc6cc(C)[nH]n6)n5)cn3)C4)cc2)c1 [Compound 88, 6-methyl-2-(6-(6-(4-(4-methyl-1H-pyrazol-1-yl)benzyl)-3,6-diazabicyclo[3.1.1]heptan-3-yl)pyridin-3-yl)-N-(5-methyl-1H-pyrazol-3-yl)pyrimidin-4-amine]	62	32	–	–	–
Cc1cc(Nc2cc(C)[nH]n2)nc(-c2ccc(N3C[C@H]4C[C@@H](C3)N4C(C)c3ccc(-n4cc(F)cn4)nc3)nc2)n1 (single isomer, unassigned) [Compound 52-2]	–	–	12	13 ± 2.34	–
Cc1cc(Nc2cc(C)[nH]n2)nc(-c2ccc(N3CC4CC(C3)N4Cc3ccc(-c4cc(F)cnc4C)nc3)nc2)n1 [Compound 8, 2-(6-(6-((5′-fluoro-2′-methyl-[2,3′-dipyridyl]-5-yl)methyl)-3,6-diazabicyclo[3.1.1]heptan-3-yl)pyridin-3-yl)-6-methyl-N-(5-methyl-1H-pyrazol-3-yl)pyrimidin-4-amine]	46	–	5	–	–
Cc1cc(Nc2cc(C)[nH]n2)nc(-c2ccc(N3CC4CC(C3)N4Cc3ccc(-c4ccn[nH]4)nc3)nc2)n1 [Compound 132, 2-(6-(6-((6-(1H-pyrazol-5-yl)pyridin-3-yl)methyl)-3,6-diazabicyclo[3.1.1]heptan-3-yl)pyridin-3-yl)-6-methyl-N-(5-methyl-1H-pyrazol-3-yl)pyrimidin-4-amine]	84	–	–	–	inhibition at 0.03 µM (VEGFR2; [2]): 31%
Cc1cc(Nc2cc(C)[nH]n2)nc(-c2ccc(N3CC4CC(C3)N4Cc3ccc(-n4cc(Cl)c(C)n4)nc3)nc2)n1 [Compound 28, 2-(6-(6-((6-(4-chloro-3-methyl-1H-pyrazol-1-yl)pyridin-3-yl)methyl)-3,6-diazabicyclo[3.1.1]heptan-3-yl)pyridin-3-yl)-6-methyl-N-(5-methyl-1H-pyrazol-3-yl)pyrimidin-4-amine]	–	–	23	10.4 ± 1.38	–
Cc1cc(Nc2cc(C)[nH]n2)nc(-c2ccc(N3CC4CC(C3)N4Cc3ccc(-c4ccc(C)o4)nc3)nc2)n1 [Compound 133, 6-methyl-N-(5-methyl-1H-pyrazol-3-yl)-2-(6-(6-((6-(5-methylfuran-2-yl)pyridin-3-yl)methyl)-3,6-diazabicyclo[3.1.1]heptan-3-yl)pyridin-3-yl)pyrimidin-4-amine]	82	–	–	–	inhibition at 0.05 µM (VEGFR2; 50 nM, read-out: Inhibition rate on VEGFR2): 28%
COc1ccc(F)c(CN2C3CC2CN(c2ccc(-c4nc(C)cc(Nc5cc(C)[nH]n5)n4)cn2)C3)c1 [Compound 96, 2-(6-(6-(2-fluoro-5-methoxybenzyl)-3,6-diazabicyclo[3.1.1]heptan-3-yl)pyridin-3-yl)-6-methyl-N-(5-methyl-1H-pyrazol-3-yl)pyrimidin-4-amine]	–	4	–	–	inhibition at 0.1 µM (RET-V804M; 100 nM (Table 2), read-out: Inhibition rate on RET-V804M): 84%
Cc1cc(Nc2cc(C)[nH]n2)nc(-c2ccc(N3CC4CC(C3)N4Cc3ccc(-n4ccc(F)n4)nc3)nc2)n1 [Compound 63, 2-(6-(6-((6-(3-fluoro-1H-pyrazol-1-yl)pyridin-3-yl)methyl)-3,6-diazabicyclo[3.1.1]heptan-3-yl)pyridin-3-yl)-6-methyl-N-(5-methyl-1H-pyrazol-3-yl)pyrimidin-4-amine]	65	38	–	–	–

Reference: patent US20220144847A1, “HETEROCYCLIC COMPOUND, PHARMACEUTICAL COMPOSITION COMPRISING SAME, PREPARATION METHOD THEREFOR, AND USE THEREOF” (Sichuan Kelun-Biotech Biopharmaceutical Co., Ltd., priority 2019, published 2022)
